Laboratory results: patent publication US6355799B1, “Substituted benzene compounds, process for their preparation, and herbicidal and defoliant compositions containing them” (ISK Americas Incorporated, priority 1997, dated 2002)

Legend:
Assay type in all cases: in vivo
[1] = test system: upland rice (Oryza sp., var. Tebonnet, RICE); experiment: Post-emerge test, crop safety; conditions: post-emerge, 14 days after application, rating scale 0-100
Outline: (§1)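 Herbicidal damage is scored 0 (none) to 100 (complete plant death) two weeks after a simulated field spray. Rates span 15–1000 g ai/ha, delivered in acetone at 187 l/ha. For post-emergence treatments, plants have 2–3 leaves and the spray carries 0.25% v/v non-ionic surfactant.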

[2] = test system: field corn (Zea mays L., var. Dekalb 535, CORN); experiment: Post-emerge test, crop safety; conditions: post-emerge, 14 days after application, rating scale 0-100
Outline: as §1

[3] = test system: sicklepod (Cassia obtusifolia, CASOB); experiment: Pre-emerge test, greenhouse herbicide activity screening; conditions: phytotoxicity rating 0-100, 14 days after application
Excerpt: (§2) A standard greenhouse herbicide activity screening system was used to evaluate the herbicidal efficacy and crop safety of these test compounds. Seven broadleaf weed species including redroot pigweed (Amaranthus retroflexus, AMARE, velvetleaf (Abutilon theophrasti, ABUTH), sicklepod (Cassia obtusifolia, CASOB), ivyleaf morningglory (Ipomoea hederacea, IPOHE), lambsquarters (Chenopodium album, CHEAL), common ragweed (Ambrosia artemisizfolia L., AMBEL), and cocklebur (Xanthium strumarium, XANST) were used as test species. Four grass weed species including green foxtail (Setaria viridis, SETVI), barnyardgrass (Echinochloa crus-galli, ECHCG), johnsongrass (Sorghum halepense, SORHA), and large crabgrass (Digitaria sanguinalis, DIGSA) were also used. In addition, three crop species, field corn (Zea mays L., var. Dekalb 535, CORN), soybean (Glycine max L., var. Pella 86, SOY), and is upland rice (Oryza sp., var. Tebonnet, RICE) were included.
(§3) All plants were grown in 10 cm square plastic pots which were filled with a sandy loam soil mix. For pre-emerge tests, seeds were planted one day prior to application of the test compounds. For post-emerge tests, seeds were planted 8-21 days prior to the test to allow emergence and good foliage development prior to application of the test substances. At the time of the post-emerge application, plants of all species were usually at the 2-3 leaf stage of development.
(§4) All test compounds Were dissolved in acetone and applied to the test units in a volume of 187 l /ha. Test materials were applied at rates ranging from 15 g ai/ha to 1000 g ai/ha using a track sprayer equipped with a TJ8001E even flow flat fan spray nozzle. Plants were arranged on a shelf so that the top of the canopy (post-emerge) or top of the soil surface (pre-emerge) was 40-45 cm below the nozzle. Pressurized air was used to force the test solution through the nozzle as it was mechanically advanced (via electrically driven chain drive) over the top of all test plants/pots. This application simulates a typical commercial field herbicide application.
(§5) In the post-emerge test, a commercial non-ionic surfactant was also included (0.25% v/v) to enhance wetting of the leaf surfaces of target plants. Immediately after application, test units of the pre-emerge applications were watered at the soil surface to incorporate the test materials. Subsequently, these test units were bottom-watered. Post-emerge test units were always bottom-watered.
(§6) At 14 days after application of the test materials, phytotoxicity ratings were recorded. A rating scale of 0-100 was used as previously described in Research Methods in Weed Science, 2nd edition, B. Truelove, Ed., Southern Weed Science Society, Auburn University, Auburn, Ala. 1977. Briefly, “0” corresponds to no damage and “100” corresponds to complete death of all plants in the test unit. This scale was used both to determine efficacy against weed species and damage to crop species. Herbicide activity data for various compounds of this invention, which are shown by compound No. in Tables 1-8, are shown in Tables 11 and 12.

[4] = test system: green foxtail (Setaria viridis, SETVI); experiment: as above; conditions: phytotoxicity rating 0-100, 14 days after application
Excerpt: as §2, §3, §4, §5, §6

[5] = test system: large crabgrass (Digitaria sanguinalis, DIGSA); experiment: as above; conditions: phytotoxicity rating 0-100, 14 days after application
Excerpt: as §2, §3, §4, §5, §6

[6] = test system: lambsquarters (Chenopodium album, CHEAL); experiment: as above; conditions: phytotoxicity rating 0-100, 14 days after application
Excerpt: as §2, §3, §4, §5, §6

[7] = test system: barnyardgrass (Echinochloa crus-galli, ECHCG); experiment: as above; conditions: phytotoxicity rating 0-100, 14 days after application
Excerpt: as §2, §3, §4, §5, §6

[8] = test system: ivyleaf morningglory (Ipomoea hederacea, IPOHE); experiment: as above; conditions: phytotoxicity rating 0-100, 14 days after application
Excerpt: as §2, §3, §4, §5, §6

[9] = test system: velvetleaf (Abutilon theophrasti, ABUTH); experiment: as above; conditions: phytotoxicity rating 0-100, 14 days after application
Excerpt: as §2, §3, §4, §5, §6

[10] = test system: redroot pigweed (Amaranthus retroflexus, AMARE); experiment: as above; conditions: phytotoxicity rating 0-100, 14 days after application
Outline: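 Compounds in acetone were track-sprayed at 15-1000 g ai/ha (187 l/ha) on sandy loam pots: pre-emerge one day after seeding, post-emerge at 2-3 leaf stage with 0.25% v/v non-ionic surfactant. Phytotoxicity was rated 14 days later on a 0 (no damage) to 100 (complete death) scale.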

[11] = test system: sicklepod (Cassia obtusifolia, CASOB); experiment: Post-emerge test, greenhouse herbicide activity screening; conditions: post-emerge, 14 days after application, rating scale 0-100
Excerpt: as §2, §3, §4, §5, §6

[12] = test system: redroot pigweed (Amaranthus retroflexus, AMARE); experiment: as above; conditions: post-emerge, 14 days after application
Excerpt: as §2, §3, §4, §5, §6

[13] = test system: green foxtail (Setaria viridis, SETVI); experiment: as above; conditions: post-emerge, 14 days after application, rating scale 0-100
Excerpt: as §2, §3, §4, §5, §6

[14] = test system: large crabgrass (Digitaria sanguinalis, DIGSA); experiment: as above; conditions: post-emerge, 14 days after application, rating scale 0-100
Excerpt: as §2, §3, §4, §5, §6

[15] = test system: lambsquarters (Chenopodium album, CHEAL); experiment: as above; conditions: post-emerge, 14 days after application, rating scale 0-100
Excerpt: as §2, §3, §4, §5, §6

[16] = test system: barnyardgrass (Echinochloa crus-galli, ECHCG); experiment: as above; conditions: post-emerge, 14 days after application, rating scale 0-100
Excerpt: as §2, §3, §4, §5, §6

[17] = test system: ivyleaf morningglory (Ipomoea hederacea, IPOHE); experiment: as above; conditions: post-emerge, 14 days after application, rating scale 0-100
Excerpt: as §2, §3, §4, §5, §6

[18] = test system: velvetleaf (Abutilon theophrasti, ABUTH); experiment: as above; conditions: post-emerge, 14 days after application, rating scale 0-100
Excerpt: as §2, §3, §4, §5, §6

[19] = test system: upland rice (Oryza sp., var. Tebonnet, RICE); experiment: Pre-emerge test, crop safety; conditions: crop damage rating 0-100, 14 days after application
Outline: (§7)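 Plants grown in 10 cm pots of sandy loam mix received acetone-dissolved compounds through a moving flat-fan nozzle. Doses ranged from 15 to 1000 g ai/ha. Pre-emerge pots were seeded one day earlier, post-emerge pots 8–21 days earlier. Fourteen days on, each pot was graded 0–100 for damage.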

[20] = test system: field corn (Zea mays L., var. Dekalb 535, CORN); experiment: Pre-emerge test, crop safety; conditions: crop damage rating 0-100, 14 days after application
Outline: as §7

[21] = 63 g ai/ha, rating scale 0-100 (0 no damage, 100 complete death)
[22] = 250 g ai/ha, rating scale 0-100

Row | SMILES | phytotoxicity rating RICE (crop damage) ([1]; 63 g ai/ha) | phytotoxicity rating RICE (crop damage) ([1]; 250 g ai/ha) | phytotoxicity rating CORN (crop damage) ([2]; 63 g ai/ha) | phytotoxicity rating CORN (crop damage) ([2]; 250 g ai/ha) | Pre-emerge Herbicidal Activity CASOB ([3]; 63 g ai/ha) | Pre-emerge Herbicidal Activity CASOB ([3]; 250 g ai/ha) | Pre-emerge Herbicidal Activity SETVI ([4]; 63 g ai/ha) | Pre-emerge Herbicidal Activity SETVI ([4]; 250 g ai/ha) | Pre-emerge Herbicidal Activity DIGSA ([5]; 63 g ai/ha) | Pre-emerge Herbicidal Activity DIGSA ([5]; 250 g ai/ha) | Pre-emerge Herbicidal Activity CHEAL ([6]; 63 g ai/ha) | Pre-emerge Herbicidal Activity CHEAL ([6]; 250 g ai/ha) | Pre-emerge Herbicidal Activity ECHCG ([7]; 63 g ai/ha) | Pre-emerge Herbicidal Activity ECHCG ([7]; 250 g ai/ha) | Pre-emerge Herbicidal Activity IPOHE ([8]; 63 g ai/ha) | Pre-emerge Herbicidal Activity IPOHE ([8]; 250 g ai/ha) | Pre-emerge Herbicidal Activity ABUTH ([9]; 63 g ai/ha) | Pre-emerge Herbicidal Activity ABUTH ([9]; 250 g ai/ha) | Pre-emerge Herbicidal Activity AMARE ([10]; 63 g ai/ha) | Pre-emerge Herbicidal Activity AMARE ([10]; 250 g ai/ha) | also measured
1 | COc1c(Cl)cc(F)c(-n2c(=O)cc(C(F)(F)F)n(C)c2=O)c1NC(=O)OCc1cc(C)ccc1C [4-38] | 35 | 50 | 40 | 85 | 30 | 60 | 100 | 100 | 95 | 100 | 100 | 100 | 30 | 60 | 60 | 50 | 80 | 100 | 100 | 100 | phytotoxicity rating CASOB ([11]; 63 g ai/ha): 90; phytotoxicity rating CASOB ([11]; 250 g ai/ha): 100; phytotoxicity rating AMARE [12, 21]: 100; phytotoxicity rating AMARE [12, 22]: 100; phytotoxicity rating SETVI ([13]; 63 g ai/ha): 60; phytotoxicity rating SETVI ([13]; 250 g ai/ha): 80; phytotoxicity rating DIGSA ([14]; 63 g ai/ha): 40; phytotoxicity rating DIGSA ([14]; 250 g ai/ha): 40; phytotoxicity rating CHEAL ([15]; 63 g ai/ha): 100; phytotoxicity rating CHEAL ([15]; 250 g ai/ha): 100; phytotoxicity rating ECHCG ([16]; 63 g ai/ha): 50; phytotoxicity rating ECHCG ([16]; 250 g ai/ha): 50; phytotoxicity rating IPOHE ([17]; 63 g ai/ha): 100; phytotoxicity rating IPOHE ([17]; 250 g ai/ha): 100; phytotoxicity rating ABUTH ([18]; 63 g ai/ha): 100; phytotoxicity rating ABUTH ([18]; 250 g ai/ha): 100; Pre-emerge Herbicidal Activity RICE ([19]; 63 g ai/ha): 35; Pre-emerge Herbicidal Activity RICE ([19]; 250 g ai/ha): 60; Pre-emerge Herbicidal Activity CORN ([20]; 63 g ai/ha): 10; Pre-emerge Herbicidal Activity CORN ([20]; 250 g ai/ha): 20
2 | COc1c(Cl)cc(F)c(-n2c(=O)cc(C(F)(F)F)n(C)c2=O)c1NC(=O)OCc1cc(F)ccc1F [4-39] | 60 | 60 | 70 | 100 | 30 | 90 | 100 | 100 | 100 | 100 | 100 | 100 | 60 | 80 | 80 | 100 | 100 | 100 | 100 | 100 | phytotoxicity rating CASOB ([11]; 63 g ai/ha): 100; phytotoxicity rating CASOB ([11]; 250 g ai/ha): 100; phytotoxicity rating AMARE [12, 21]: 100; phytotoxicity rating AMARE [12, 22]: 100; phytotoxicity rating SETVI ([13]; 63 g ai/ha): 80; phytotoxicity rating SETVI ([13]; 250 g ai/ha): 90; phytotoxicity rating DIGSA ([14]; 63 g ai/ha): 50; phytotoxicity rating DIGSA ([14]; 250 g ai/ha): 80; phytotoxicity rating CHEAL ([15]; 63 g ai/ha): 100; phytotoxicity rating CHEAL ([15]; 250 g ai/ha): 100; phytotoxicity rating ECHCG ([16]; 63 g ai/ha): 60; phytotoxicity rating ECHCG ([16]; 250 g ai/ha): 90; phytotoxicity rating IPOHE ([17]; 63 g ai/ha): 100; phytotoxicity rating IPOHE ([17]; 250 g ai/ha): 100; phytotoxicity rating ABUTH ([18]; 63 g ai/ha): 100; phytotoxicity rating ABUTH ([18]; 250 g ai/ha): 100; Pre-emerge Herbicidal Activity RICE ([19]; 63 g ai/ha): 80; Pre-emerge Herbicidal Activity RICE ([19]; 250 g ai/ha): 80; Pre-emerge Herbicidal Activity CORN ([20]; 63 g ai/ha): 70; Pre-emerge Herbicidal Activity CORN ([20]; 250 g ai/ha): 90
